Counter-ions that a name gives are not always drawn.
Key:
[1] = MTT cytotoxicity assay, normal lung fibroblasts MRC-5; details: human, MRC-5 normal lung fibroblast cells
Protocol: (§3) Preliminary in vitro anticancer activity of two compounds (2, and 3a) against the growth of five human cancer cell lines (prostate carcinoma PC3, liver carcinoma HepG-2, human colon cancer HCT-116, human breast cancer MCF-7, human lung cancer A-549) and normal human lung fibroblasts (MRC-5) were performed using the MTT assay as described in the experimental section. The inhibitory potency of the screened compounds against the tested cell lines was compared to vinblastine sulfate as a reference anticancer drug.
(§4) MRC-5 (normal human Lung fibroblast cells) were obtained from VACSERA Tissue Culture Unit. […] The normal human lung fibroblasts (MRC-5) cells were propagated in Dulbecco’s Modified Eagle’s Medium (DMEM) supplemented with 10% heat-inactivated fetal bovine serum, 1% L-glutamine, HEPES buffer, and 50µg/mL gentamycin. […] All cells were maintained at 37 °C in a humidified atmosphere with 5% CO2 and were subcultured two times a week. Chemicals used: Dimethyl sulfoxide (DMSO), MTT (3-(4,5-dimethylthiazol-2-yl)-2,5-diphenyl tetrazolium bromide), crystal violet, and trypan blue dye were purchased from Sigma (St. Louis, MO, USA). Fetal bovine serum, DMEM, RPMI-1640, HEPES buffer solution, L-glutamine, gentamycin, and 0.25% trypsin-EDTA were purchased from Lonza. Crystal violet stain (1%): composed of 0.5% (w/v) crystal violet and 50% methanol then made up to volume with deionized water and filtered through a Whatman No.1 filter paper.
(§5) For cytotoxicity assay, the normal human lung fibroblasts (MRC-5) cells were seeded in a 96-well plate at a cell concentration of 1 × 10^4 cells per well in 100 µL of growth medium. Fresh medium containing different concentrations of the test sample was added after 24 h of seeding. Serial two-fold dilutions of the tested chemical compound were added to confluent cell monolayers dispensed into 96-well, flat-bottomed microtiter plates (Falcon; Franklin, NJ, USA) using a multichannel pipette. The microtiter plates were incubated at 37 °C in a humidified incubator with 5% CO2 for a period of 24 h. Three wells were used for each concentration of the test sample. Control cells were incubated without the test sample and with or without DMSO. […] After incubation of the cells, viable cell yield was determined by a colorimetric method. After incubating for 24 h, the numbers of viable cells were determined by the MTT test. The cytotoxic concentration (CC50), the concentration required to cause toxic effects in 50% of intact cells, was estimated from graphic plots of the dose–response curve for each conc. using GraphPad Prism software (San Diego, CA. USA).

MRC cell line = assay: Microscopic observation of treated normal cells (crystal violet); assay type: cell-based, human; details: 50 µg/mL, 100×, relative to untreated cells
Protocol: (§1) This experiment was performed as previously described in the procedure for antitumor activity. After the end of the treatment at 50 µg/mL concentration, the plates were inverted to remove the medium, the wells were washed three times with 300 µL of phosphate buffered saline (pH 7.2), and then the cells were fixed to the plate with 10% formalin for 15 min at room temperature. The fixed cells were then stained with 100 µL of 0.25% crystal violet for 20 min. The stain was removed, and the plates were rinsed using deionized water to remove the excess stain and then allowed to dry. The cellular morphology was observed using an inverted microscope (CKX41; Olympus, Tokyo, Japan) equipped with a digital microscopy camera to capture the images representing the morphological changes compared to control cells. The cytopathic effects (morphological alterations) were microscopically detected at 100×.

[2] = test system: human prostate carcinoma cell line PC3; assay: MTT viability assay, PC3 prostate carcinoma; assay type: cell-based; details: for IC50: 24 h
Protocol: (§2) For antitumor assays, the human prostate carcinoma cell line PC3 was suspended in medium at a concentration of 5 × 10^4 cell/well in Corning® 96-well tissue culture plates, then incubated for 24 h. The tested compounds were then added into 96-well plates (three replicates) to achieve eight concentrations for each compound. Six vehicle controls with media or 0.5 % DMSO were run for each 96-well plate as a control. […] Briefly, the media was removed from the 96-well plate and replaced with 100 µL of fresh culture RPMI-1640 medium without phenol red then 10 µL of the 12 mM MTT stock solution (5 mg of MTT in 1 mL of PBS) to each well including the untreated controls. The 96-well plates were then incubated at 37 °C and 5% CO2 for 4 h. An 85 µL aliquot of the media was removed from the wells, and 50 µL of DMSO was added to each well and mixed thoroughly with a pipette and incubated at 37 °C for 10 min. Then, the optical density was measured at 590 nm with the microplate reader (Sunrise, Tecan Inc, Morrisville, NC, USA) to determine the number of viable cells and the percentage of viability was calculated as [(ODt/ODc)] × 100% where ODt is the mean optical density of wells treated with the tested sample and ODc is the mean optical density of untreated cells. The relation between surviving cells and drug concentration was plotted to obtain the survival curve of each tumor cell line after treatment with the specified compound.

PC3 cell line = assay: Microscopic observation of treated tumor cells (crystal violet); assay type: cell-based, human; details: 50 µg/mL, 100×, relative to untreated cells
Protocol: as §1

PC3 and MRC-5 cell lines = assay: Selectivity index, CC50 on normal cells / IC50 on cancer cells; assay type: cell-based, human; details: CC50 on MRC-5 / IC50 on PC3
Excerpt: The selectivity index (SI) is a measure of the drug candidate’s selectivity towards cancer cells rather than normal cells. It can be calculated as the ratio between the tested compound CC50 on normal cells and its IC50 on cancer cells.

[3] = test system: normal human lung fibroblasts (MRC-5); assay: MTT cytotoxicity assay, normal lung fibroblasts MRC-5; details: Homo sapiens, MRC5, 24 h, read-out: IC50 Values MRC-5
[4] = test system: human breast cancer MCF-7; assay: MTT assay, MCF-7; assay type: cell-based; details: MCF7, Table 1, MTT
Protocol: [The procedure below names another cell line; the source lists this cell line under the same test.] as §2

human lung cancer A-549 = assay: MTT assay, A-549; assay type: cell-based; details: A549, Table 1, MTT
Protocol: [The procedure below names another cell line; the source lists this cell line under the same test.] as §2

liver carcinoma HepG-2 = assay: MTT assay, HepG-2; assay type: cell-based; details: Homo sapiens, HepG2; Table 1, MTT
Protocol: [The procedure below names another cell line; the source lists this cell line under the same test.] as §2

[5] = test system: human colon cancer HCT-116; assay: MTT assay, HCT-116; assay type: cell-based; details: Table 1, MTT
Protocol: [The procedure below names another cell line; the source lists this cell line under the same test.] as §2

[6] = test system: normal human lung fibroblasts (MRC-5)
Protocol: as §3, §4, §5

[7] = Homo sapiens, Table 2, MTT, three replicates

N#Cc1c(-c2ccccc2)nc(N/N=C/c2ccc(O)cc2)[nH]c1=O [Compound 3g, 2-(2-(4-Hydroxybenzylidene)hydrazinyl)-6-oxo-4-phenyl-1,6-dihydropyrimidine-5-carboni-trile]
CC50 at 24 h [1]: 311 ± 14 µM | Morphological changes of MRC cells (MRC cell line): no significant apoptotic effect | IC50 [2, 7]: 64 ± 3 µM | Morphological changes of PC3 cells (PC3 cell line): the cancer cells shrank and lost their normal shape

N#Cc1c(-c2ccccc2)nc(N/N=C2\C(=O)Nc3ccccc32)[nH]c1=O [Compound 4, 6-Oxo-2-(2-(isatin-3-ylidene)hydrazinyl)-4-phenyl-1,6-dihydropyrimidine-5-carbonitrile]
CC50 at 24 h [1]: 348 ± 11 µM | IC50 [2, 7]: 603 ± 19 µM | SI (selectivity index) (PC3 and MRC-5 cell lines): 0.57

CC[C@]1(O)C[C@@H]2CN(CCc3c([nH]c4ccccc34)[C@@](C(=O)OC)(c3cc4c(cc3OC)N(C)[C@H]3[C@@](O)(C(=O)OC)[C@H](OC(C)=O)[C@]5(CC)C=CCN6CC[C@]43[C@@H]65)C2)C1 [Vinblastine sulfate, reference compound]
IC50 [3]: 65 µM | CC50 at 24 h [1]: 65 ± 2 µM | IC50 [4]: 6 µM | IC50 ([2]; Homo sapiens, Table 1, MTT): 46 µM | IC50 (human lung cancer A-549): 27 µM | SI (selectivity index) (PC3 and MRC-5 cell lines): 1.40 | IC50 (liver carcinoma HepG-2): 3 µM | IC50 [5]: 4 µM

N#Cc1c(-c2ccccc2)nc(NN=Cc2ccccc2)[nH]c1=O [Compound 3a, 2-(2-Benzylidenehydrazinyl)-6-oxo-4-phenyl-1,6-dihydropyrimidine-5-carbonitrile]
IC50 [3]: 92 µM | CC50 at 24 h [1]: 92 ± 3 µM | IC50 [4]: 81 µM | IC50 ([2]; Homo sapiens, Table 1, MTT): 93 µM | IC50 (human lung cancer A-549): 98 µM | SI (selectivity index) (PC3 and MRC-5 cell lines): 0.99 | IC50 (liver carcinoma HepG-2): 59 µM | IC50 [5]: 149 µM

N#Cc1c(-c2ccccc2)nc2n(c1=O)C(c1ccccc1)C(c1ccccc1)=NN2 (stereo not drawn) [Compound 5, 6-Oxo-3,4,8-triphenyl-4,6-dihydro-1H-pyrimido[2,1-c]-1,2,4-triazine-7-carbonitrile]
CC50 at 24 h [1]: 263 ± 7 µM | Morphological changes of MRC cells (MRC cell line): no significant apoptotic effect | IC50 [2, 7]: 72 ± 2 µM | Morphological changes of PC3 cells (PC3 cell line): the cancer cells shrank and lost their normal shape

N#Cc1c(-c2ccccc2)nc(N/N=C/c2ccc(Br)cc2)[nH]c1=O [Compound 3b, 2-(2-(4-Bromobenzylidene)hydrazinyl)-6-oxo-4-phenyl-1,6-dihydropyrimidine-5-carbonitri-le]
CC50 at 24 h [1]: 147 ± 4 µM | Morphological changes of MRC cells (MRC cell line): no significant apoptotic effect | IC50 [2, 7]: 21 ± 1 µM | Morphological changes of PC3 cells (PC3 cell line): the cancer cells shrank and lost their normal shape

N#Cc1c(-c2ccccc2)nc(N/N=C/c2ccc(Cl)cc2)[nH]c1=O [Compound 3c, 2-(2-(4-Chlorobenzylidene)hydrazinyl)-6-oxo-4-phenyl-1,6-dihydropyrimidine-5-carbonitri-le]
CC50 at 24 h [1]: 675 ± 19 µM | IC50 [2, 7]: 349 ± 9 µM | SI (selectivity index) (PC3 and MRC-5 cell lines): 1.93

N#Cc1c(-c2ccccc2)nc(N/N=C/c2ccccc2Cl)[nH]c1=O [Compound 3d, 2-(2-(2-Chlorobenzylidene)hydrazinyl)-6-oxo-4-phenyl-1,6-dihydropyrimidine-5-carbonitri-le]
CC50 at 24 h [1]: 44 ± 1 µM | IC50 [2, 7]: 17 ± 1 µM | fold more potent than vinblastine sulfate ([2]; PC3, from IC50 values): 2 to 3 fold | SI (selectivity index) (PC3 and MRC-5 cell lines): 2.52

COc1cccc(/C=N/Nc2nc(-c3ccccc3)c(C#N)c(=O)[nH]2)c1 [Compound 3f, 2-(2-(3-Methoxybenzylidene)hydrazinyl)-6-oxo-4-phenyl-1,6-dihydropyrimidine-5-carbo-nitrile]
CC50 at 24 h [1]: 339 ± 11 µM | Morphological changes of MRC cells (MRC cell line): no significant apoptotic effect | IC50 [2, 7]: 88 ± 2 µM | Morphological changes of PC3 cells (PC3 cell line): the cancer cells shrank and lost their normal shape

N#Cc1c(-c2ccccc2)nc(NN)[nH]c1=O [Compound 2, 2-Hydrazino-6-oxo-4-phenyl-1,6-dihydropyrimidine-5-carbonitrile]
IC50 [3]: 532 µM | CC50 at 24 h [1]: 532 ± 14 µM | IC50 [4]: 236 µM | IC50 ([2]; Homo sapiens, Table 1, MTT): 258 µM | IC50 (human lung cancer A-549): 264 µM | SI (selectivity index) (PC3 and MRC-5 cell lines): 2.05 | IC50 (liver carcinoma HepG-2): 99 µM | IC50 [5]: 180 µM

3-Hydroxy-6-oxo-8-phenyl-2,6-dihydro-1H-pyrimido[2,1-c]-1,2,4-triazine-7-carbonitrile [Compound 6]
IC50 ([2]; Table 2, MTT, three replicates): 208 ± 7 µM | CC50 [6]: 453 ± 13 µM | SI (selectivity index) (PC3 and MRC-5 cell lines): 2.17

N#Cc1c(-c2ccccc2)nc(NN=Cc2ccc([N+](=O)[O-])cc2)[nH]c1=O [Compound 3i, 2-(2-(4-Nitrobenzylidene)hydrazinyl)-6-oxo-4-phenyl-1,6-dihydropyrimidine-5-carbonitrile]
CC50 at 24 h [1]: 82 ± 3 µM | IC50 [2, 7]: 37 ± 2 µM | SI (selectivity index) (PC3 and MRC-5 cell lines): 2.18

Cc1ccccc1/C=N/Nc1nc(-c2ccccc2)c(C#N)c(=O)[nH]1 [Compound 3e, 2-(2-(2-Methylbenzylidene)hydrazinyl)-6-oxo-4-phenyl-1,6-dihydropyrimidine-5-carboni-trile]
CC50 at 24 h [1]: 428 ± 16 µM | IC50 [2, 7]: 182 ± 5 µM | SI (selectivity index) (PC3 and MRC-5 cell lines): 2.34

N#Cc1c(-c2ccccc2)nc(NN=CC=Cc2ccccc2)[nH]c1=O [Compound 3h, 6-Oxo-4-phenyl-2-(2-(3-phenylallylidene)hydrazinyl)-1,6-dihydropyrimidine-5-carbonitrile]
CC50 at 24 h [1]: 180 ± 9 µM | Morphological changes of MRC cells (MRC cell line): no significant apoptotic effect | IC50 [2, 7]: 44 ± 2 µM | Morphological changes of PC3 cells (PC3 cell line): the cancer cells shrank and lost their normal shape

— paper PMC9370056, “Pyrimidines-Based Heterocyclic Compounds: Synthesis, Cytoxicity Evaluation and Molecular Docking” (Molecules, 2022)
